Source: patent publication US20080103159A1, “Composition Comprising Ocaperidone” (priority 2005, published 2008)
Converted amounts (≈) assume the structure as drawn.

What was measured:
[1] = Bioavailability studies with conventional oral dosage forms in animals; assay type: in vivo
Excerpt: (§1) One of the objects of the invention is to overcome these drawbacks observed with conventional dosage forms.

[2] = Solubility of ocaperidone in water and buffers of gastro-intestinal fluids; assay type: physicochemical
Procedure: Ocaperidone is virtually insoluble in water. Its water solubility is less or equal to 0.007 mg per mL. […] In order to be absorbed uniformly from the gastrointestinal tract after oral administration, the drug must be dissolved and must remain in the solution for absorption. The pH of the gastrointestinal tract varies from pH 1 to 5 in the stomach and pH 4 to 7.5 in the intestine. There is also known significant variation of the intestinal pH on an intra- and inter-individual basis in the general population. This variation is mostly attributed to factors such as gastro-intestinal motility, concomitantly administered food or drug and food habits etc. It is an object of the present invention to provide a therapeutic system for ocaperidone from which, despite its very low solubility in water (0.007 mg/mL), is dispensed/released in the surrounding intestinal environment in a dissolved state. This invention eliminates the effect of surrounding pH on the solubility of ocaperidone. In addition, this improvement in solubility makes this therapeutic system to function appropriately from the bioavailability point of view and overcomes the inter- and intra-individual variability.

[3] = Bioavailability studies with conventional oral dosage forms in humans; assay type: in vivo; settings: within a patient and between patients
Excerpt: as §1

variability of bioavailability [1]: significant high variability
solubility in the buffers of gastro-intestinal fluids ([2]; buffers of pH 3.0 and above): in the same range as that of water
solubility ([2]; water): 7 µg/mL (≈ 16.6 µM)
water solubility ([2]; water): ≤ 0.007 mg per mL
variability of bioavailability [3]: significant high variability
SMILES: Cc1nc2c(C)cccn2c(=O)c1CCN1CCC(c2noc3cc(F)ccc23)CC1 [Ocaperidone]
